assay: In vitro test for inhibition of [125I]CCK binding to Cholecystokinin type B receptor from guinea pig cortical membranes was determined

| SMILES | IC50 [nM] |
| --- | --- |
| Cc1cccc(NC(=O)NC2N=C(C3CCC3)c3ccccc3N(C)C2=O)c1 (stereo not drawn) [1-(5-Cyclobutyl-1-methyl-2-oxo-2,3-dihydro-1H-benzo[e][1,4]diazepin-3-yl)-3-m-tolyl-urea] | 30 |
| Cc1cccc(NC(=O)NC2N=C(C3CCCC3)c3ccccc3N(C)C2=O)c1 (stereo not drawn) [1-(5-Cyclopentyl-1-methyl-2-oxo-2,3-dihydro-1H-benzo[e][1,4]diazepin-3-yl)-3-m-tolyl-urea] | 16 |
| Cc1cccc(NC(=O)N[C@H]2N=C(C3CCCCC3)c3ccccc3N(C)C2=O)c1 [1-((S)-5-Cyclohexyl-1-methyl-2-oxo-2,3-dihydro-1H-benzo[e][1,4]diazepin-3-yl)-3-m-tolyl-urea] | 169 |

Reference: BindingDB's records for doi:10.1016/S0960-894X(01)80987-2 (1993)
